In patent US7101878B1 (Agouron Pharmaceuticals, Inc., priority 1998, dated 2006):
Read-outs that look alike come from different tables or passages of the source.

Experiments:
[1] = molecular target: T1, human GnRH receptor (Homo sapiens, UniProt P30968); assay: Radioligand binding, 125I-GnRH-A displacement, membranes of HEK 293 cells with human GnRH receptor
T1 construct: expressed in transfected cells; host or cells: HEK 293 (hGnRH-R/293, from Dr. Stuart Sealfon)
T1 sequence (P30968 1-328): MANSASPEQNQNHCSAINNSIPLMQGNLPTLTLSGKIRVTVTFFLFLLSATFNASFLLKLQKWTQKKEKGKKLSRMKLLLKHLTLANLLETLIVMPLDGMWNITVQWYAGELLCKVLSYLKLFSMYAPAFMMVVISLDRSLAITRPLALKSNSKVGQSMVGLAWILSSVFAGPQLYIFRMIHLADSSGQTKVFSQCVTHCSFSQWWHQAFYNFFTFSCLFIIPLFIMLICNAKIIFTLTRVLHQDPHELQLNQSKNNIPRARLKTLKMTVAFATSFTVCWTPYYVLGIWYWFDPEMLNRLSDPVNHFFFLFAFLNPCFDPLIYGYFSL
How it was run: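 Bound tracer was separated by filtration through polyethyleneimine-soaked GF/C filters and counted by liquid scintillation. IC50 from curve fitting; other species were tested under the same conditions.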

[2] = molecular target: T2, bovine GnRH receptor (Bos taurus, UniProt P32236); assay: Radioligand binding, 125I-GnRH-A, bovine pituitary membranes
T2 construct: membranes were prepared from bovine pituitary; from tissue; host or cells: bovine pituitary
T2 sequence (P32236 1-328): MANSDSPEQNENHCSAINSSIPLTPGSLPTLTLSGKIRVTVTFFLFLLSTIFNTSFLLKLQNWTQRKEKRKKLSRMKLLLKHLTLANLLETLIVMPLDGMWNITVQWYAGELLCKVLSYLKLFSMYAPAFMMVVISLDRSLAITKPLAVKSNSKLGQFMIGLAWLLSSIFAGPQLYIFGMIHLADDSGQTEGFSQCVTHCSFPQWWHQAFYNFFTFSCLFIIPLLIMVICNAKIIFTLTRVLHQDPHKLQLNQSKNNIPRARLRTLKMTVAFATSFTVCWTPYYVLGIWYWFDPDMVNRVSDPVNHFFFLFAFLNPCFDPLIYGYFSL
Method: All compounds were diluted in 1% DMSO (final assay concentration) in binding assay buffer. […] Reactions were terminated by rapid filtration onto 96-well Packard GF/C filters soaked in 0.1% polyethyleneimine. Filters were washed three times with PBS buffer, dried and counted on a Packard Topcount by liquid scintillation counting.
Assay conditions were identical for assessing compound activities at other species. […] IC50 values for control peptides and test compounds were calculated utilizing GraphPad Prism™ software.
The reaction mixture was vortexed and incubated for 1 min at room temperature. After one min, the mixture was vortexed and allowed to incubate for an additional minute. 2 ml of 0.5 M acetic acid/1% BSA was added to the reaction tube and the mixture was added to a C18 Sep-Pak cartridge. The cartridge was washed with subsequent washes of 5 ml H2O and 5 ml 0.5M acetic acid and then eluted with 5×1 ml of 60% CH3CN/40% 0.5M acetic acid. The eluate was diluted with 3× volume of HPLC buffer A (0.1% TFA in H2O) and loaded onto a C18 column. […] The radioactive fractions (750 ed/fraction) are collected into clean polypropylene tubes containing 100 μl of 10% BSA. Fractions were assessed for biological activity by radioligand binding.

[3] = molecular target: T3, mouse GnRH receptor (Mus musculus, UniProt Q01776); assay: Radioligand binding, 125I-GnRH-A, 293 cells expressing mouse GnRH receptors
T3 construct: expressed in transfected cells; host or cells: 293 cells
T3 sequence (Q01776 1-327): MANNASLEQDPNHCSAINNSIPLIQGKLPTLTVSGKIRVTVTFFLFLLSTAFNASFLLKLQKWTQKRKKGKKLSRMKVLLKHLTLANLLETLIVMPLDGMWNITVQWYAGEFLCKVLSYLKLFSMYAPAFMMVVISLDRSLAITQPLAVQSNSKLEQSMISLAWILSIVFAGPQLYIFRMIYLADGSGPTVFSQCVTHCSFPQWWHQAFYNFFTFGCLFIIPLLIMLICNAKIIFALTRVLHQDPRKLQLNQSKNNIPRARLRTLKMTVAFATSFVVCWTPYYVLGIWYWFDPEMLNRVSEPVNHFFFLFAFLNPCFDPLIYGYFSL
How it was run: (§1)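 Bound label captured on 0.1% polyethyleneimine-treated GF/C filters, washed three times with PBS, counted. IC50 derived; identical set-up for every species.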

[4] = Pharmacokinetic studies / bioavailability in rats; assay type: in vivo, rat; details: male, rat, plasma, 10 mg/kg, rat male; for half-life: iv
[5] = molecular target: T4, rat GnRH receptor (Rattus norvegicus, UniProt P30969); assay: Radioligand binding, 125I-GnRH-A, rat pituitary membranes; set-up: membranes were prepared from rat pituitary; from tissue; host or cells: rat pituitary
T4 sequence (P30969 1-327): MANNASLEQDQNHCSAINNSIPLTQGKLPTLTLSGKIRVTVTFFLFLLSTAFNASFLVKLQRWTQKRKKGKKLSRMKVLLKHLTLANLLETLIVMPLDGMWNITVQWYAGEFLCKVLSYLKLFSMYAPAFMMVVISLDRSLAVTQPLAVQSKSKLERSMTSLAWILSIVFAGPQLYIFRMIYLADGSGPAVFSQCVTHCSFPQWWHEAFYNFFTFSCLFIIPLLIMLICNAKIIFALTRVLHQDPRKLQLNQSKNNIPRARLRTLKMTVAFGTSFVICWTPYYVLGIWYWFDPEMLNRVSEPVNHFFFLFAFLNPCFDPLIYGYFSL
How it was run: as §1

[6] = means ± SE of at least three experiments performed in duplicate, read-out: Human IC50
[7] = means ± SE of at least three experiments performed in duplicate, read-out: Bovine IC50
[8] = means ± SE of at least three experiments performed in duplicate, read-out: Mouse IC50
[9] = po, p.o. 10 mg/kg, vehicle per footnote
[10] = means ± SE of at least three experiments performed in duplicate, read-out: Rat IC50

Row | SMILES | IC50 [1, 6] [nM] | IC50 ([1]; read-out: hGnRH IC50) [nM] | IC50 [2, 7] [nM] | IC50 [3, 8] [nM] | IC50 ([3]; read-out: mGnRH IC50) [nM] | half-life [4] [h] | Cmax [4, 9] [nM] | Tmax [4, 9] [h] | IC50 [5, 10] [nM] | IC50 ([5]; read-out: rGnRH IC50) [nM] | IC50 ([2]; read-out: bGnRH IC50) [nM] | IC50 ([1]; second value marked * (mostly in parentheses), asterisk not explained, read-out: hGnRH IC50, value marked *) [nM]
1 | Cc1ccc(CNC(=O)c2ccc(Cc3cc4c(cc3C)C(C)(C)CCC4(C)C)o2)cc1 [Compound 14] | 80 ± 4 | 80 | 1050 ± 30 | 290 ± 70 | 290 | 1.4 | 1600 | 1 | 60 ± 15 | 60 | – | –
2 | COc1cccc(CNC(=O)c2ccc(Cc3cc4c(cc3C)C(C)(C)CCC4(C)C)o2)c1OC [Compound 15] | 100 ± 17 | 290 | 1000 ± 240 | 220 ± 50 | – | – | – | – | 70 ± 16 | – | – | –
3 | Cc1cc2c(cc1Cc1ccc(C(=O)NCC3CCC(C#N)CC3)o1)C(C)(C)CCC2(C)C (centres unmarked) [Compound 16] | 30 ± 6 | 30 | 4380 ± 510 | 1290 ± 210 | 1290 | 0.667 | – | – | 560 ± 50 | 560 | – | –
4 | Cc1cc2c(cc1Cc1ccc(C(=O)NCc3cccc(C)c3C)o1)C(C)(C)CCC2(C)C [Compound 17] | 80 ± 20 | 80 | 670 ± 120 | 80 ± 20 | 80 | 2.2 | – | – | 30 ± 4 | 30 | – | –
5 | Cc1cc2c(cc1Cc1ccc(C(=O)NCC3CCCC(CNC(=N)N)C3)o1)C(C)(C)CCC2(C)C (centres unmarked) [Compound 22] | – | 540 | – | – | 1100 | – | – | – | – | 310 | 1710 | –
6 | Cc1cc2c(cc1Cc1ccc(C(=O)NCc3cccc(CNC(=N)N)c3)o1)C(C)(C)CCC2(C)C [Compound 24] | – | 550 | – | – | 560 | – | – | – | – | 150 | 760 | –
7 | Cc1cc2c(cc1Cc1ccc(C(=O)NCc3ccc(CNC(=N)N)cc3)o1)C(C)(C)CCC2(C)C [Compound 25] | – | 410 | – | – | 950 | – | – | – | – | 260 | 940 | –
8 | Cc1cc2c(cc1Cc1ccc(C(=O)NCc3cccc(Cl)c3)o1)C(C)(C)CCC2(C)C [Compound 39] | – | 190 | – | – | 830 | – | – | – | – | 220 | 2340 | –
9 | Cc1cc2c(cc1Cc1ccc(C(=O)NCc3cccnc3)o1)C(C)(C)CCC2(C)C [Compound 43] | – | 320 | – | – | 630 | – | – | – | – | 330 | 4000 | 130
10 | Cc1ccccc1CNC(=O)c1ccc(Cc2cc3c(cc2C)C(C)(C)CCC3(C)C)o1 [Compound 50] | – | 230 | – | – | 370 | – | – | – | – | 150 | 1520 | –
